# Reference: the NIST ThermoML archive (doi:10.1016/j.fluid.2013.10.012)
# Numbers after ± are expanded uncertainties.
# How the values were obtained:
# [1] = Liquid; for mass density: 298.15 K, 101.33 kPa, Vibrating tube method; for vapor or sublimation pressure: Ebulliometric method (Recirculating still)
# [2] = refractive index (Na D-line) (dimensionless); settings: 298.15 K; 101.33 kPa; Liquid; Standard Abbe refractometry
smiles,measurement,setting,value
"Cc1ccccc1C [1,2-dimethylbenzene]",mass density,[1],875.5 ± 1 kg/m3
same,vapor or sublimation pressure,[1]; 347.2 K,10 ± 0.15 kPa
same,refractive index,[2],1.5031 ± 0.0007
"Cc1cccc(C)c1 [1,3-dimethylbenzene]",mass density,[1],859.95 ± 1 kg/m3
same,vapor or sublimation pressure,[1]; 342.8 K,10 ± 0.15 kPa
same,refractive index,[2],1.4946 ± 0.0007
"Cc1ccc(C)cc1 [1,4-dimethylbenzene]",mass density,[1],856.71 ± 1 kg/m3
same,vapor or sublimation pressure,[1]; 342 K,10 ± 0.15 kPa
same,refractive index,[2],1.4931 ± 0.0007
CCCCCCCCCCC [undecane],mass density,[1],736.85 ± 1 kg/m3
same,vapor or sublimation pressure,[1]; 393.4 K,10 ± 0.15 kPa
same,refractive index,[2],1.4152 ± 0.0007
